{"source": "paper PMC3988085", "about": "“In Vitro Metabolism of 20(R)-25-Methoxyl-Dammarane-3, 12, 20-Triol from Panax notoginseng in Human, Monkey, Dog, Rat, and Mouse Liver Microsomes” (PLoS ONE, 2014)", "key": {"CYP3A4": {"molecular_target": "CYP3A4 (Homo sapiens, UniProt P08684)", "sequence (P08684 whole entry)": "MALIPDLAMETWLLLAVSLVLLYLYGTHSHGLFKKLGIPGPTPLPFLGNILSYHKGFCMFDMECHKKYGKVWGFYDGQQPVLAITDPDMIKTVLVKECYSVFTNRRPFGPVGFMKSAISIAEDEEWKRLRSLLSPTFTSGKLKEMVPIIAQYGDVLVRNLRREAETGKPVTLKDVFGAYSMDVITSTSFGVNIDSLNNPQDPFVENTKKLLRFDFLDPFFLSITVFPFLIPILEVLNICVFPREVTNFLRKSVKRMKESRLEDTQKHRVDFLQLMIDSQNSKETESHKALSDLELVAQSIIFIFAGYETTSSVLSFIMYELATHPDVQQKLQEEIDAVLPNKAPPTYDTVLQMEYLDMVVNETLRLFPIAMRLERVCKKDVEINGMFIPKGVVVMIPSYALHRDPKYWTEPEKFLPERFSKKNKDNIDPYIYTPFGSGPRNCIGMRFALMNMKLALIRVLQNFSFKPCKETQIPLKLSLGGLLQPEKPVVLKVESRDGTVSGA", "test": "Inhibition of CYP3A4 catalytic activity by 25(R)-OCH3-PPD", "format": "in vitro ADME"}, "[1]": {"settings": "rat, in vivo, 10 mg/kg; cited from earlier work"}, "[2]": {"system": "human liver microsomes (HLM)", "test": "Metabolite formation in human liver microsomes, 60 min", "format": "in vitro ADME", "settings": "HLM 1 mg/ml, 50 µM 25(R)-OCH3-PPD, NADPH", "method": "(§1) 25(R)-OCH3-PPD were incubated in hepatic microsomes to examine the potential P450-mediated metabolism. Stock solutions of 2 mM 25(R)-OCH3-PPD was prepared in methanol. The final methanol concentration in the incubation was 2.5% (v/v). The liver microsomes were carefully thawed on ice before the experiment.\n(§2) For NADPH dependent oxidative metabolism study, the reaction media contained 1 mg/ml of microsomal proteins, 10 mM G-6-P, 10 mM MgCl2, 1 U/ml G-6-PDH, 50 µM concentration of 25(R)-OCH3-PPD in potassium phosphate buffer (pH 7.4; 0.1 M) in a total volume of 200 µl. Negative control incubations containing no NADPH-regenerating system were conducted. All incubations were performed at 37°C in a shaking water bath for 60 min.\n(§3) After 5 min preincubation at 37°C, the incubation reactions were initiated with the addition of microsome proteins. After undergoing incubation for 60 min, the reactions were terminated with an equal volume of ice-cold acetonitrile and 10 µl diazepam (5 µg/ml, internal standard) was added. This sample was vortex-mixed and centrifuged at 14,000 g for 5 min. […] The residue was reconstituted in 100 µl of methanol with 0.1% formic acid, centrifuged 10 min at 18000 rpm and then an aliquot 5 µL of the supernatant was directly injected onto the HPLC-MS system for quanlitative or quantitative analysis."}, "[3]": {"system": "cynomolgus monkey liver microsomes (CyLM)", "test": "Metabolite formation in monkey liver microsomes, 60 min", "format": "in vitro ADME", "settings": "CyLM 1 mg/ml, 50 µM 25(R)-OCH3-PPD, NADPH", "method": "as §1, §2, §3"}, "[4]": {"system": "dog liver microsomes (DLM)", "test": "Metabolite formation in dog liver microsomes, 60 min", "format": "in vitro ADME, beagles", "settings": "DLM 1 mg/ml, 50 µM 25(R)-OCH3-PPD, NADPH", "method": "as §1, §2, §3"}, "[5]": {"system": "rat liver microsomes (RLM)", "test": "Metabolite formation in rat liver microsomes, 60 min", "format": "in vitro ADME, Sprague-Dawley rats", "settings": "RLM 1 mg/ml, 50 µM 25(R)-OCH3-PPD, NADPH", "method": "as §1, §2, §3"}, "[6]": {"system": "mouse liver microsomes (MLM)", "test": "Metabolite formation in mouse liver microsomes, 60 min", "format": "in vitro ADME, CD-1 mice", "settings": "MLM 1 mg/ml, 50 µM 25(R)-OCH3-PPD, NADPH", "method": "as §1, §2, §3"}, "CYP3A": {"system": "CYP3A", "test": "Chemical inhibition study in human hepatic microsomes (ketoconazole)", "format": "in vitro ADME", "method": "The chemical inhibition study was performed by adding each of the specific inhibitors of P450 enzymes into the incubation of 25(R)-OCH3-PPD (3 or 10 µM) in 0.25 mg/ml HLM incubation systems containing an NADPH-regenerations system as described above. The chemical inhibitors and concentration were selected on the basis of previous reports and are as follows: α-naphthoflavone (10.0 µM) for CYP1A2, quercetin (10 µM) for CYP2C8, sulfaphenazole (10.0 µM) for CYP2C9, ticlopidine (5 µM) for CYP2C19, quinidine (10.0 µM) CYP2D6, diethyl dithiocarbamate (20 µM) for CYP2E1, and ketoconazole (0.1, 0.25, 0.5, 1 and 5 µM) for CYP3A.\nThe inhibitors were dissolved in dimethyl sulfoxide, and the final concentration of dimethyl sulfoxide in the incubation was 1% (v/v). The final incubation volume was 200 µl. Microsomes were preincubated for 5 min with a NADPH-regenerating system at 37°C, the reactions were initiated with the addition of 25(R)-OCH3-PPD and inhibitor. The reactions were terminated with an equal volume of ice-cold acetonitrile after 30 min of incubation. Parallel incubations without chemical inhibitors served as control. Samples were prepared as mentioned above to measure the concentration of parent and the metabolites by HPLC-MS/MS analysis."}}, "data": [{"smiles": "COC(C)(C)CCC[C@@](C)(O)C1CC[C@]2(C)C1[C@H](O)CC1[C@@]3(C)CC[C@H](O)C(C)(C)C3CC[C@]12C", "note": "(stereo partly drawn) [25(R)-OCH3-PPD, 20(R)-25-methoxyl-dammarane-3β, 12β, 20-triol]", "values": [{"measurement": "inhibition of the CYP3A4 catalytic activity", "setting": "CYP3A4", "result": "NADPH and concentration-dependent"}]}, {"smiles": "COC(C)(C)CCC[C@](C)(O)[C@H]1CC[C@]2(C)[C@@H]1[C@H](O)C[C@@H]1[C@@]3(C)CC[C@H](O)C(C)(C)[C@@H]3CC[C@]12C", "note": "[25(S)-OCH3-PPD, 20(S)-25-methoxyl-dammarane-3beta, 12beta, 20-triol]", "values": [{"measurement": "absolute bioavailability", "setting": "[1]", "result": 19.7, "unit": "%"}]}, {"smiles": "CC(C)(O)CCC[C@@](C)(O)C1CC[C@]2(C)C1[C@H](O)CC1[C@@]3(C)CC[C@H](O)C(C)(C)C3CC[C@]12C", "note": "(stereo partly drawn) [Metabolite M1]", "values": [{"measurement": "relative amount of metabolite formed", "setting": "[2]", "result": "minor metabolite"}, {"measurement": "relative amount of metabolite formed", "setting": "[3]", "result": "minor metabolite"}, {"measurement": "relative amount of metabolite formed", "setting": "[4]", "result": "intermediate relative amount"}, {"measurement": "relative amount of metabolite formed", "setting": "[5]", "result": "dominant metabolite"}, {"measurement": "relative amount of metabolite formed", "setting": "[6]", "result": "dominant metabolite"}]}, {"smiles": "CC(=O)N1CCN(c2ccc(OCC3COC(Cn4ccnc4)(c4ccc(Cl)cc4Cl)O3)cc2)CC1", "note": "(stereo not drawn) [ketoconazole]", "values": [{"measurement": "effect on the oxidative metabolism of 25(R)-OCH3-PPD", "setting": "CYP3A; HLM 0.25 mg/ml, 25(R)-OCH3-PPD 10 µM, 30 min", "result": "significant inhibitory effect"}, {"measurement": "inhibition of formation of M5", "setting": "CYP3A; HLM, ketoconazole 0.1 µM", "result": "completely"}, {"measurement": "effect on formation of M1 and M6", "setting": "CYP3A; HLM, ketoconazole 5 µM", "result": "inhibited"}, {"measurement": "effect on formation of M2, M3, M4, M5, M7", "setting": "CYP3A; HLM, ketoconazole 0.1-5 µM, concentration dependent", "result": "inhibited"}, {"measurement": "effect on formation of M1 and M6", "setting": "CYP3A; HLM, ketoconazole 0.1–1 µM", "result": "activated"}]}]}
